{"source": "patent US11672797B2", "about": "“Methods of treating keloids” (Hampton University, priority 2019, dated 2023)", "format_in_all_cases": "cell-based, human", "key": {"[1]": {"test_system": "Keloid fibroblast (KF) cells (CRL1762)", "assay": "Example 1: Hoechst / propidium iodide staining of keloid fibroblasts after 16 h treatment", "settings": "for number of KF cells: 40 μM KC7F2, 25 uM IDF-11774, 25 uM PX-478, 10 mM 2-DG, compared to control untreated cells, FIGS. 4A-B"}, "[2]": {"test_system": "Keloid fibroblast (KF) cells (CRL1762)", "assay": "Example 2: phalloidin / DAPI staining of keloid fibroblasts, 10,000 cells per well", "settings": "16 hours", "description": "(§1) Keloid fibroblast (KF) cells (CRL1762) and normal skin fibroblasts (NF, CRL2439) were both purchased from the American Type Culture Collection (ATCC, Manassas, Va.). This assay compared the effects of KC7F2 versus the glycolytic inhibitor 2-DG on the cellular consequences of HIF-1 functional blockade.\n(§2) For each human skin fibroblast, 10,000 cells were plated per well. Each well was treated and incubated for 16 hours with the following: Control, no chemical treatment; 40 μM KC7F2; 10 mM 2-deoxyglucose (2-DG), a glycolysis inhibitor; and both 40 μM KC7F2 and 10 mM 2-DG. Cells were stained with phalloidin for filamentous actin and cells were labelled DAPI (4′,6-diamidino-2-phenylindolepropridium iodide) to indicate dying cells. Images were taken at a magnification of 4 times (4×) and 10 times (10×)."}, "[3]": {"test_system": "Keloid fibroblast (KF) cells (CRL1762)", "assay": "Example 3: phalloidin / DAPI staining of keloid fibroblasts, 20,000 cells per well", "settings": "16 hours", "description": "as §1\nas §2, with “20,000 cells,” for “10,000 cells”"}}}
{"smiles": "O=S(=O)(NCCSSCCNS(=O)(=O)c1cc(Cl)ccc1Cl)c1cc(Cl)ccc1Cl", "note": "[KC7F2]", "values": [{"measurement": "number of KF cells", "setting": "[1]", "result": "reduced the number of KF cells consistently and the best"}, {"measurement": "number of KF cells", "setting": "[2]; 40 μM KC7F2, FIGS. 5A, 6A", "result": "reduced the number of KF cells consistently and the best"}, {"measurement": "number of KF cells", "setting": "[3]; 40 μM KC7F2, FIGS. 7A, 8A", "result": "reduced the number of KF cells consistently and the best"}]}
{"smiles": "CN1CCN(C(=O)COc2ccc(C34CC5CC(CC(C5)C3)C4)cc2)CC1", "note": "[IDF-11774, 2-(4-((3r,5r,7r)-adamantan-1-yl)phenoxy)-1-(4-methylpiperazin-1-yl)ethan-1-one]", "values": [{"measurement": "number of KF cells", "setting": "[1]", "result": "worked less well, but showed the same trend"}]}
{"smiles": "O=CC[C@@H](O)[C@H](O)[C@H](O)CO", "note": "[2-DG, 2-deoxyglucose]", "values": [{"measurement": "proliferation", "setting": "[1]; 10 mM 2-DG alone", "result": "insufficient to impede proliferation to an appreciable amount"}, {"measurement": "proliferation", "setting": "[2]; 10 mM 2-DG alone", "result": "insufficient to impede proliferation to an appreciable amount"}, {"measurement": "proliferation", "setting": "[3]; 10 mM 2-DG alone", "result": "insufficient to impede proliferation to an appreciable amount"}]}
